Data: PMC11189555, “Aryl amino acetamides prevent Plasmodium falciparum ring development via targeting the lipid-transfer protein PfSTART1” (Nature Communications, 2024)
Where “and” joins values, the source holds several entries; their conditions need not be identical. Identical values can stand only once. Entries after “also recorded” stand apart in the source; their conditions may differ.

Legend:
[1] = system: P. falciparum NF54 gametocytes fed to An. stephensi; experiment: Standard membrane feeding assay (London School of Hygiene and Tropical Medicine); assay type: in vivo, Plasmodium falciparum; details: W-991 1, 50, 100 nM; second insectary; Fig S7C-D
Description: These assays were performed at the Walter and Eliza Hall Institute and at the London School of Hygiene and Tropical Medicine using slightly different approaches which are described in the Supplementary Information. […]
Gametocyte culturing and standard membrane feeding assay (London School of Hygiene and Tropical Medicine). P. falciparum NF54 gametocytes were prepared for blood-feeding to mosquitoes according to the method described by 13, with some slight modifications. Briefly, gametocyte cultures seeded at 2% overall parasitaemia and 4% haematocrit were maintained at 37 °C for 17 days with daily media changes.
Gametocyte functional viability was assessed by ex-flagellation assay at day 14 post induction, observed by light microscopy. An. stephensi (SD500 strain) were reared as […]
Gametocyte aliquots from a single NF54 culture, produced as above, were incubated […]
or culture medium only (no -drug control) from day 14 until day 17 when SMFA was carried out. Fresh drug -containing media was provided each day during this exposure.
Pots of 70 -80 two- to five-day old female An. stephensi mosquitoes were allowed to feed on 500 µL of the respective culture+drug mixture, presented to each pot in a pre - heated 3D -printed water channel membrane feeder 15, until fully fed. […]

ring-stage parasites = experiment: Parasite reduction ratio assay; assay type: cell-based, Plasmodium falciparum
Description: Parasite reduction ratio assay. This was performed as previously described 9,10.
Briefly, asynchronous ring -stage parasites at 0.5% parasitemia and 2% haematocrit were exposed to compounds at 10 x EC50 of growth for five days with daily drug renewal. After each 24 h, a well from each treatment group was taken and washed three times in complete RPMI and final volume adjusted to 2% haematocrit. The washed culture was then aliquoted into a 96 well U-bottom plate and a 1:3 serial dilution into fresh uninfected RBCs was performed with four technical replicates for each time point. Plates were maintained in normal culturing conditions: media was replaced, and fresh RBCs given 1-2 times a week for three weeks, after which parasite growth was measured via lactate dehydrogenase assays. The number of viable parasites was calculated using the formula xn-1 +1, where x is the dilution factor and n is the number of wells that contain parasite growth. The viable parasite value was then expressed in log units and parasite reduction ratio was calculated as a decrease in […]

[2] = system: P. berghei sporozoites invading HC-04 human liver cells; experiment: In vitro liver invasion assay; assay type: cell-based, Plasmodium berghei
Description: P. berghei ANKA constitutively expressing mCherry[82] was used for the in vitro liver stage invasion assay. Animals used for the generation of the sporozoites were 4- to 5-week-old male Swiss Webster mice and were purchased from the Monash Animal Services (Melbourne, Victoria, Australia) and housed at 22 to 25 °C on a 12 h light/dark cycle with 40-70% humidity at the School of Biosciences, The University of Melbourne, Australia. All animal experiments were in accordance with the Prevention of Cruelty to Animals Act 1986, the Prevention of Cruelty to Animals Regulations 2008, and National Health and Medical Research Council (2013) Australian code for the care and use of animals for scientific purposes. These experiments were reviewed and permitted by the Melbourne University Animal Ethics Committee (2015123).
Infections of naïve Swiss mice were carried out by intraperitoneal (IP) inoculation obtained from a donor mouse between the first and fourth passages from cryopreserved stock. Parasitemia was monitored by Giemsa smear and exflagellation quantified 3 days post-infection. A. stephensi mosquitoes were allowed to feed on anaesthetised mice once the exflagellation rate was assessed between about 12 to 15 exflagellation events per 1 × 10^4 RBCs. Salivary glands of infected mosquitoes (days 17 to 24 post-infection) were isolated by dissection and parasites placed into RPMI-1640 media.
This was performed essentially as described[83] with the minor variations outlined in the Supplementary Information. […]
In vitro liver invasion assays. This was performed essentially as described16 with the following variations. In vitro human liver HCO4 cells (ATCC) were seeded at 1 × 10^5 cells/mL, grown for 24 h and then infected for 2 h with 30,000 Pb ANKA mCherry […]
expressing sporozoites. Following fixation, an IFA with anti -CSP antibody (1:500) followed by anti-mouse Alexafluor 488 (1:1 ,000; Invitrogen, Carlsbad, CA, USA) labels uninvaded parasites. Fluorescence signal was assessed using an Olympus CKX41 epifluorescence microscope. […]
Gametogenesis was then triggered by the addition of 10 μL ookinete medium (gametocyte culture medium supplemented with 100 μM xanthurenic acid and 0.27 µg/mL Cy3-labelled anti-Pfs25 antibody) to each well at room temperature. Plates were then cooled on a metal block at 4°C for four min to ensure even cooling and then stabilised for a further 4 min at 28°C. At 20 min post-induction, male gametogenesis was recorded in each well by automated brightfield microscopy using a x4 objective lens and 1.5x magnifier (x6 effective magnification). Afterward, plates were incubated in the dark at room temperature for 24 h and then female gametogenesis recorded in each well by automated fluorescence microscopy (anti-Pfs25-positive cells). All experiments were performed in quadruplicate with DMSO and cabamiquine (DDD107498)17 as negative and positive controls respectively. All data was evaluated in comparison to the positive and negative controls to calculate percentage inhibition of male and female gametocytes, and dose response analysis and IC50 calculation performed using GraphPad Prism. […]
The pellet was subjected to five

## CC(C)(Nc1ccc(Cl)c(S(=O)(=O)N2CCOCC2)c1)C(=O)Nc1ccc(F)c(Cl)c1 [W-991]
[1]
  transmission to mosquitoes: reduction in transmission
ring-stage parasites; 60 nM W-991, lag phases 0-24 h, 48-96 h
  lag phases: more than 24 h
ring-stage parasites; 10 x EC50 (60 nM W-991) for up to 5 days, then 21 days culture
  viable parasites after treatment: a proportion of parasites remained after a treatment period of 5 days
ring-stage parasites; 10xEC50: 75 nM CQ, 60 nM W-991
  killing profile: slow
ring-stage parasites; Replicate 1, 24 Hours
  PRR calculations: log viability at Hours 24: 4.771
ring-stage parasites; Replicate 1, 72 Hours
  PRR calculations: log viability at Hours 72: 3.34
ring-stage parasites; Replicate 1, PRR calculations
  PRR: 1.431
ring-stage parasites; Replicate 1, T=1
  log(parasite viability) +1: 4.771
ring-stage parasites; Replicate 1, T=1, 1:3 dilution
  Parasite viability: 59049
ring-stage parasites; Replicate 1, T=2
  log(parasite viability) +1: 3.34
ring-stage parasites; Replicate 1, T=2, 1:3 dilution
  Parasite viability: 2187
ring-stage parasites; Replicate 1, T=3
  log(parasite viability) +1: 3.34
ring-stage parasites; Replicate 1, T=3, 1:3 dilution
  Parasite viability: 2187
ring-stage parasites; Replicate 1, T=4
  log(parasite viability) +1: 3.34
ring-stage parasites; Replicate 1, T=4, 1:3 dilution
  Parasite viability: 2187
ring-stage parasites; Replicate 1, T=5
  log(parasite viability) +1: 2.863
ring-stage parasites; Replicate 1, T=5, 1:3 dilution
  Parasite viability: 729
ring-stage parasites; Replicate 2, Hours 72
  log(parasite viability) +1 used in PRR calculations: 3.34
ring-stage parasites; Replicate 2, Hours 120
  log(parasite viability) +1 used in PRR calculations: 1.914
ring-stage parasites; Replicate 2, PRR calculations
  PRR: 1.426
ring-stage parasites; Replicate 2, T=1
  Parasite viability +1: 177148
  log(parasite viability) +1: 5.248
ring-stage parasites; Replicate 2, T=1, 1:3 dilution
  Parasite viability: 177147
ring-stage parasites; Replicate 2, T=2
  Parasite viability +1: 2188
  log(parasite viability) +1: 3.34
ring-stage parasites; Replicate 2, T=2, 1:3 dilution
  Parasite viability: 2187
ring-stage parasites; Replicate 2, T=3
  Parasite viability +1: 2188
  log(parasite viability) +1: 3.34
ring-stage parasites; Replicate 2, T=3, 1:3 dilution
  Parasite viability: 2187
ring-stage parasites; Replicate 2, T=4
  Parasite viability +1: 2188
  log(parasite viability) +1: 3.34
ring-stage parasites; Replicate 2, T=4, 1:3 dilution
  Parasite viability: 2187
ring-stage parasites; Replicate 2, T=5
  Parasite viability +1: 82
  log(parasite viability) +1: 1.914
ring-stage parasites; Replicate 2, T=5, 1:3 dilution
  Parasite viability: 81
ring-stage parasites; replicate 3, T=1
  Parasite viability (1:3 dilution): 177147
  log(parasite viability) +1: 5.248
ring-stage parasites; replicate 3, T=2
  Parasite viability (1:3 dilution): 2187
ring-stage parasites; replicate 3, T=2 (48 hours in PRR calculations)
  log(parasite viability) +1: 3.34
ring-stage parasites; replicate 3, T=3
  Parasite viability (1:3 dilution): 729
ring-stage parasites; replicate 3, T=3 (72 hours in PRR calculations)
  log(parasite viability) +1: 2.863
ring-stage parasites; replicate 3, T=4
  Parasite viability (1:3 dilution): 19683
  log(parasite viability) +1: 4.294
ring-stage parasites; replicate 3, T=5
  Parasite viability (1:3 dilution): 81
ring-stage parasites; replicate 3, T=5 (120 hours in PRR calculations)
  log(parasite viability) +1: 1.914
ring-stage parasites; replicate 3, difference of log viability over 48 h (CQ 0-48 hours, W991 72-120 hours)
  PRR: 0.9495
[2]; 2 h incubation with HC-04 cells, p > 0.05
  P. berghei sporozoite invasion: showed no defect in invasion; also recorded: had no impact
[2]; count of sporozoites inside cells, Replicate 1 and 2
  Liver stage invasion assay: in: 58 and 121
[2]; count of sporozoites outside cells, Replicate 1 and 2
  Liver stage invasion assay: out: 92 and 153
[2]; in relative to in + out, Replicate 1 and 2
  Liver stage invasion assay: ratio: 38.6667 and 44.1606
